A short description of series [1]: Solubility of amorphous substance in solvent systems (supersaturated solution, oscillated 24 h at room temperature, HPLC). The series is classed as physicochemical. As to conditions: dehydrated alcohol 50%: water 50% (w/w), aqueous with cosolvent or surfactant or cyclodextrin, thermodynamic from solid, Dehydrated alcohol 50%: water 50% (w/w); read-out: 24 h solubility. On the procedure:
The amorphous substance of the compound of formula I was prepared into supersaturated solutions with different solvents, and oscillated under a room temperature condition (a constant temperature). After oscillating for 24 h, sampling was performed, and the content of the sample was detected by HPLC under condition 1.
Condition 1: • Chromatographic column: C18 (150 mm×4.6 mm×3.5 μm); • Mobile phase: binary mobile phase system, mobile phase A was 0.1% formic acid in water, mobile phase B was acetonitrile; • Elution time: 68 min; • Elution mode: gradient elution (in the gradient elution process, mobile phase A had the maximum volume percentage of 95% and the minimum volume percentage of 10%); • Detection wavelength: 270 nm.

Series [2] is described as follows: Distribution of compound in sebaceous glands and blood of golden hamsters after single skin application. Type of series: in vivo. As to conditions: for Concentration in sebaceous glands / concentration at 8 h: 8 h. On the procedure: 6 male golden hamsters were selected for the experiment, and randomly divided evenly into 2 groups, with three golden hamsters per group. All animals were fasted overnight before administration, and were administered via a route of single application. Sampling was performed at specific time points after administration. Specific information on animal grouping, administration, sampling, etc. were detailed in Table 6.
The amorphous substance of the compound of formula I was weighed and placed in a 50 mL centrifugal tube. A mixed solvent (consisting of 75% v/v ethanol, 15% v/v glyceryl tri (2-ethylhexanoate) and 10% v/v glycerin) was added. After vortexing, heating was performed at 60° C. until the amorphous substance of the compound of formula I was completely dissolved. The amorphous substances of the compound of formula I in the two groups were prepared at 30 mg/mL and 100 mg/mL, respectively, and stored at room temperature in the dark.
After administration, blood was collected into blood collection tubes containing a heparin sodium anticoagulant at corresponding time points. Immediately after collection of whole blood, the blood collection tubes were gently shaken and placed on ice, and then centrifuged (4° C., 4000 rpm, 10 min). The supernatant plasma samples (plasma volume ≥100 μL) were collected, and stored in a refrigerator at about −80° C. The plasma samples were collected for 8 h for analysis.

Values joined by “and” are separate entries in the source; they are usually repeats but may differ in a detail not shown here. Equal entries are not always repeated. Where two headings read alike, the source gives them in different places. Some results are limits rather than exact numbers.

For orientation: solubility means how much of the substance goes into solution per volume.

Regarding `Cc1ncsc1-c1ccc(CNC(=O)[C@@H]2C[C@@H](O)CN2C(=O)[C@@H](NC(=O)COCCCCOc2ccc(-c3ccc(N4C(=S)N(c5ccc(C#N)c(C(F)(F)F)c5F)C(=O)C4(C)C)cn3)cc2)C(C)(C)C)cc1` [compound of formula I], the solubility at 24 h in series [1] amounted to 6440 µg/mL. Moreover, the “Concentration in sebaceous glands” value in series [2] (Left sebaceous gland, dose 1.2 mg, individual animals No. 1-3) is 10900 ng/mL and 20400 ng/mL and 7010 ng/mL; in series [2] (Left sebaceous gland, dose 4 mg, individual animals No. 4-6), 57100 ng/mL and 15000 ng/mL and 8340 ng/mL; in series [2] (Right sebaceous gland, dose 1.2 mg, individual animals No. 1-3), 17900 ng/mL and 15700 ng/mL; in series [2] (Right sebaceous gland, dose 4 mg, individual animals No. 4-6), 19900 ng/mL and 18400 ng/mL. For the same compound, in series [2] (golden hamsters, administration via skin application), the “distribution between sebaceous glands and blood after skin application” value is on record as “can enter sebaceous glands, but cannot enter blood”. The “maximum blood drug concentration” value in series [2] (group 2, dose 4 mg, over sampling time points 0.25, 0.5, 1, 2, 4, 6 and 8 h) came out at 10.6 ng/mL. For the same compound, the “Concentration of compound of formula I in plasma” value in series [2] (male golden hamsters, skin application 4 mg, 2 h, individual animals No. 4, 5, 6) worked out at 10.6 ng/mL; in series [2] (male golden hamsters, skin application 4 mg, 4 h, individual animals No. 4, 5, 6), 4.42 ng/mL. For the same compound, the concentration at 0.5 h in series [2] (male, hamster, plasma, topical, 4 mg, male golden hamsters, skin application 4 mg, 0.5 h, individual animals No. 4, 5, 6, read-out: Concentration of compound of formula I in plasma) is less than 0 ng/mL. Also, the concentration at 1 h in series [2] (male, hamster, plasma, topical, 4 mg, male golden hamsters, skin application 4 mg, 1 h, individual animals No. 4, 5, 6, read-out: Concentration of compound of formula I in plasma) was less than 0 ng/mL. In addition, the concentration at 2 h in series [2] (male, hamster, plasma, topical, 4 mg, male golden hamsters, skin application 4 mg, 2 h, read-out: Concentration of compound of formula I in plasma, Mean) was determined as 11 ng/mL. Further, the concentration at 4 h in series [2] (male, hamster, plasma, topical, 4 mg, male golden hamsters, skin application 4 mg, 4 h, read-out: Concentration of compound of formula I in plasma, Mean) turned out to be 4 ng/mL. Besides, the concentration at 8 h in series [2] (male, hamster, right sebaceous gland, topical, 1.2 mg, Right sebaceous gland, dose 1.2 mg, individual animals No. 1-3, read-out: Concentration in sebaceous glands) came out at 9170 ng/mL; in series [2] (male, hamster, right sebaceous gland, topical, 4 mg, Right sebaceous gland, dose 4 mg, individual animals No. 4-6, read-out: Concentration in sebaceous glands), 26600 ng/mL; in series [2] (male, hamster, sebaceous glands (left and right), topical, 1.2 mg, left and right sebaceous glands, dose 1.2 mg, read-out: Concentration mean in sebaceous glands), 13500 ng/mL; in series [2] (male, hamster, sebaceous glands (left and right), topical, 4 mg, left and right sebaceous glands, dose 4 mg, read-out: Concentration mean in sebaceous glands), 24200 ng/mL.

The values above are taken from US20250129062A1, “AMORPHOUS SUBSTANCES, CRYSTALS, PHARMACEUTICAL COMPOSITIONS, PREPARATION METHODS AND USES OF THIOHYDANTOIN COMPOUND OR PHARMACEUTICALLY ACCEPTABLE SALT THEREOF” (SUZHOU KINTOR PHARMACEUTICALS, INC., priority 2021, published 2025).
